Laboratory results from US11566022B2, “3-(5-methoxy-1-oxoisoindolin-2-yl)piperidine-2,6-dione derivatives and uses thereof” (NOVARTIS AG, priority 2019, dated 2023).

Experiments:
[1] = SCD, current standard of care; cited from earlier work
[2] = molecular target: HiBit-WIZ fusion protein (Homo sapiens, UniProt O95785+Q96SW2); assay: Quantification of WIZ protein levels in HiBit tag fusion protein assay (WIZ HiBit assay in 293T cells); assay type: cell-based; parameters: Dmax: dose or concentration left out as unconfirmed; details: for Dmax / remaining activity at up to 25 µM: HEK-293T; for Dmax: read-out: % degradation of WIZ (100-Amax); for remaining activity at up to 25 µM: read-out: WIZ Amax; for DC50: WIZ HiBit assay in 293T cells, 10-point, 5-fold dose response, highest concentration 25 μM, about 18 hours, read-out: WIZ AC50
[3] = DMSO-normalized, curve-fitted percentage of WIZ-HiBit remaining at 25 uM, 293T cells

HiBit-WIZ fusion protein, sequence (O95785 whole entry, the tested form may be a part): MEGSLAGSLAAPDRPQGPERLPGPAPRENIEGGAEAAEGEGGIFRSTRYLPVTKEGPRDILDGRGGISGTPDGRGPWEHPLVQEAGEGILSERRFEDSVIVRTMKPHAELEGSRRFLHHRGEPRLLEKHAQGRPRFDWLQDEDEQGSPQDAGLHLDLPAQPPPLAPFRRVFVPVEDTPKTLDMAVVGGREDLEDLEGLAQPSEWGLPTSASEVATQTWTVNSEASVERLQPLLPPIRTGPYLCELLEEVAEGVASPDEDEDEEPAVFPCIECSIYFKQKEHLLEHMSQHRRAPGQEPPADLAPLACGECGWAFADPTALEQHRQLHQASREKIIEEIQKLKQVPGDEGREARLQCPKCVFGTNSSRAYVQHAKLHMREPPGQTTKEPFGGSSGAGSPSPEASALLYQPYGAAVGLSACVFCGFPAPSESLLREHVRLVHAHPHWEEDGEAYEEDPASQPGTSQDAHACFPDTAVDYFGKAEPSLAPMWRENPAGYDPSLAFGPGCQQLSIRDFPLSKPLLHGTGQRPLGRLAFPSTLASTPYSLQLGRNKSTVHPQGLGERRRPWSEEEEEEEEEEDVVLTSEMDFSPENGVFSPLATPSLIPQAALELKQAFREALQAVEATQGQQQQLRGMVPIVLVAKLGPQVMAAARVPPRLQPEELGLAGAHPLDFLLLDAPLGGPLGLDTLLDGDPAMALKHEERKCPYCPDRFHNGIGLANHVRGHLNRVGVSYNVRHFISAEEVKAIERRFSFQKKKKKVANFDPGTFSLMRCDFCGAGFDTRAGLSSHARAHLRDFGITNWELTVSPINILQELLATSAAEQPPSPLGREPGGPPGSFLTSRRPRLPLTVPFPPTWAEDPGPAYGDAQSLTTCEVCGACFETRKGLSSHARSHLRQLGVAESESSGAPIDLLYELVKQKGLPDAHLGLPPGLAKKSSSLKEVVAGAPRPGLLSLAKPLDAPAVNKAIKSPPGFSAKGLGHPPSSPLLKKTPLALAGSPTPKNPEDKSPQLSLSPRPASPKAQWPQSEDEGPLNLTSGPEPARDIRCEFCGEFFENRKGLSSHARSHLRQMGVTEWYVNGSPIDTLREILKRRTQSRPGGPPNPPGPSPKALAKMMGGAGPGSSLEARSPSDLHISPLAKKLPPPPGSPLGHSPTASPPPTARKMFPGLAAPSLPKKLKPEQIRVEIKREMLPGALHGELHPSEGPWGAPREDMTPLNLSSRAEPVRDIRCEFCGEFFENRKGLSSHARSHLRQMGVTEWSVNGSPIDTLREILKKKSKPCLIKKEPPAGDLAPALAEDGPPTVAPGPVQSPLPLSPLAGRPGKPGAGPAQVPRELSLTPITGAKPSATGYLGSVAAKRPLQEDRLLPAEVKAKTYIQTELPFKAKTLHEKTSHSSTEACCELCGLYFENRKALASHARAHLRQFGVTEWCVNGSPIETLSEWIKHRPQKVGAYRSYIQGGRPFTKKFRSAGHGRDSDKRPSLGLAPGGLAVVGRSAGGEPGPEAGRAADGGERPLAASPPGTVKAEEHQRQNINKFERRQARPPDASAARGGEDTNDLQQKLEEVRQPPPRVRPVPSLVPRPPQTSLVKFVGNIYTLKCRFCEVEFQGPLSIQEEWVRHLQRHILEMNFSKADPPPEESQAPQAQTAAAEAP
HiBit-WIZ fusion protein, sequence (Q96SW2 whole entry, the tested form may be a part): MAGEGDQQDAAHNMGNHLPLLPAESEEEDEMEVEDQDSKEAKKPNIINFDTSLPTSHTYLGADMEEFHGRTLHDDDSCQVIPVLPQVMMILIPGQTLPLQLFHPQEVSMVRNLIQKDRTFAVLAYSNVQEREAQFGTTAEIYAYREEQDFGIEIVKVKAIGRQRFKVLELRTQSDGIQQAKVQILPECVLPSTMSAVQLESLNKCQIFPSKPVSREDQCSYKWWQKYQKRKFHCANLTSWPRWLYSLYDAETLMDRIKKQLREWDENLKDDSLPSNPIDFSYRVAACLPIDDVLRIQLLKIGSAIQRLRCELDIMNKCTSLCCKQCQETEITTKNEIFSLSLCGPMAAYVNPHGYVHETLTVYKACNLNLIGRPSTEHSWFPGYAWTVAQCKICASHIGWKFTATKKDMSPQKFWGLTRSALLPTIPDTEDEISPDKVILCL
HiBit-WIZ fusion protein, sequence (Q16531 whole entry partner, the tested form may be a part): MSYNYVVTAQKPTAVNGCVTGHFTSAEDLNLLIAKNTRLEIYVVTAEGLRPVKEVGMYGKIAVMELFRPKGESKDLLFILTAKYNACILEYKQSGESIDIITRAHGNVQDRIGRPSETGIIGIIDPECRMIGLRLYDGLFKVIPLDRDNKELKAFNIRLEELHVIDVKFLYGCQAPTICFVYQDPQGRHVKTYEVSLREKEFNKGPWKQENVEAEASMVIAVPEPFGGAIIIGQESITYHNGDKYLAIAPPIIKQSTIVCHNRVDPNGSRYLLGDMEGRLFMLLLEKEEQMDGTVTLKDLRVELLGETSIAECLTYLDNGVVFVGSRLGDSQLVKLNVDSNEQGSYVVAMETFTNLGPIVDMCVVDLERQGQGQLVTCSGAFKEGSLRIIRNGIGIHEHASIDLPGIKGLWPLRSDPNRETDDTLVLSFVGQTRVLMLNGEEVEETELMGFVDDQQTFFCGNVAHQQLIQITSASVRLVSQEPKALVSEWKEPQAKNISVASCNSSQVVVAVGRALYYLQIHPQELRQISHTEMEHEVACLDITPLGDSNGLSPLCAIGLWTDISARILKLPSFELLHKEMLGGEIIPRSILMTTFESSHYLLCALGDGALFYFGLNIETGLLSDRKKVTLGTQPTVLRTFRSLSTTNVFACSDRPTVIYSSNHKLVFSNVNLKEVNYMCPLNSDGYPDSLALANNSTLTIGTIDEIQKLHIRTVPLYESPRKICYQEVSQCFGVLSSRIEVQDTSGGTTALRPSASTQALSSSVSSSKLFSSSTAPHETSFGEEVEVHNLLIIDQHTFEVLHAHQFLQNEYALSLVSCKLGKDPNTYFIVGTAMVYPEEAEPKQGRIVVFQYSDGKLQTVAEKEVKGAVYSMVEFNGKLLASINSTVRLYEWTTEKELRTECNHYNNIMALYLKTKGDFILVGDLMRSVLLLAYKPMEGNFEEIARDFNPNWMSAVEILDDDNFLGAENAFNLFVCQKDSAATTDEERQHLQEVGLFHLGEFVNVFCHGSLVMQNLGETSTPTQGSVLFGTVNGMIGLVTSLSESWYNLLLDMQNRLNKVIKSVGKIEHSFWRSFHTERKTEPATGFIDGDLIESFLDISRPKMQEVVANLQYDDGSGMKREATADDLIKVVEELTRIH

Dmax ([2]; 100 minus Amax, 293T cells) | remaining activity at up to 25 µM [2, 3] | DC50 [2] | % degradation of WIZ (100-Amax) ([2]; 100 minus Amax, at 25 uM, 293T cells) | WIZ Amax [2, 3] | SMILES | response rate [1]
– | – | – | – | – | NC(=O)NO [Hydroxyurea] | less than 40%
52.8% | 47.2% | 17400 nM | – | – | O=C1CCC(N2Cc3cc(OC[C@@H]4CCCCN4C(=O)c4ccc(Cl)c(I)c4)ccc3C2=O)C(=O)N1 (stereo partly shown) [Compound I-72ad] | –
11.8% | 88.2% | > 25000 nM | – | – | CC(C)(C#N)c1cc(C(=O)N2CCCC[C@H]2COc2ccc3c(c2)CN(C2CCC(=O)NC2=O)C3=O)ccn1 (stereo partly shown) [Compound I-72be] | –
– | – | 12 nM | 73.2% | 26.8% | CCN1C2CCC(C2)C1COc1ccc2c(c1)CN(C1CCC(=O)NC1=O)C2=O (single isomer, unassigned) [I-255 (Isomer 1), 3-(5-((endo-2-ethyl-2-azabicyclo[2.2.1]heptan-3-yl)methoxy)-1-oxoisoindolin-2-yl)piperidine-2,6-dione] | –
99.5% | 0.5% | 3 nM | – | – | O=C1CCC(N2Cc3cc(OC[C@H]4CCCCN4Cc4ccc(N5CCCC5)nc4)ccc3C2=O)C(=O)N1 (stereo partly shown) [Compound I-50es] | –
41.9% | 58.1% | > 25000 nM | – | – | Nc1ncc(CN2CCCC[C@H]2COc2ccc3c(c2)CN(C2CCC(=O)NC2=O)C3=O)cn1 (stereo partly shown) [Compound I-50be] | –
15.2% | 84.8% | > 25000 nM | – | – | O=C1CCC(N2Cc3cc(OC[C@@H]4CCCCN4C(=O)[C@H]4CCN(Cc5ccccc5)C4)ccc3C2=O)C(=O)N1 (stereo partly shown) [Compound I-72cy] | –
90.7% | 9.3% | 11 nM | – | – | O=C1CCC(N2Cc3cc(OC[C@H]4CCCCN4Cc4cccc5c4NCC5)ccc3C2=O)C(=O)N1 (stereo partly drawn) [Compound I-111, 3-(5-(((R)-1-(indolin-7-ylmethyl)piperidin-2-yl)methoxy)-1-oxoisoindolin-2-yl)piperidine-2,6-dione] | –
66.9% | 33.1% | 6530 nM | – | – | CCc1nc(C)c(CN2CCCC[C@@H]2COc2ccc3c(c2)CN(C2CCC(=O)NC2=O)C3=O)[nH]1 (stereo partly shown) [Compound I-50dh] | –
93.4% | 6.6% | 58 nM | – | – | Cn1nc(CN2CCCC[C@H]2COc2ccc3c(c2)CN(C2CCC(=O)NC2=O)C3=O)cc1-c1ccccc1 (stereo partly shown) [Compound I-50bc] | –
42.6% | 57.4% | > 25000 nM | – | – | O=C1CCC(N2Cc3cc(OC[C@@H]4CCCCN4Cc4ccnc(O)c4)ccc3C2=O)C(=O)N1 (stereo partly shown) [Compound I-50cv] | –
100% | 0% | 7 nM | – | – | Cn1nc(CN2CCCC[C@@H]2COc2ccc3c(c2)CN(C2CCC(=O)NC2=O)C3=O)cc1-c1ccccc1 (stereo partly shown) [Compound I-50dm] | –
78.9% | 21.1% | 686 nM | – | – | O=C1CCC(N2Cc3cc(OC[C@@H]4CCCCN4C(=O)c4cc(-c5ccc(Br)cc5)on4)ccc3C2=O)C(=O)N1 (stereo partly shown) [Compound I-72ak] | –
99% | 1% | 16 nM | – | – | O=C1CCC(N2Cc3cc(OC[C@@H]4CCCCN4CC4CCN(Cc5ccccc5)CC4)ccc3C2=O)C(=O)N1 (stereo partly shown) [Compound I-50aj] | –
31.4% | 68.6% | > 25000 nM | – | – | O=C1CCC(N2Cc3cc(OC[C@H]4CCCCN4Cc4cc(-n5nnnc5C(F)(F)F)ccc4O)ccc3C2=O)C(=O)N1 (stereo partly shown) [Compound I-50ei] | –
94.1% | 5.93% | 0.083 nM | – | – | CC(C)(C)c1ccc(CN2CCCC[C@@H]2COc2ccc3c(c2)CN(C2CCC(=O)NC2=O)C3=O)cc1 (stereo partly shown) [Compound I-158] | –
25.7% | 74.3% | > 25000 nM | – | – | Cc1cc(CN2CCCC[C@H]2COc2ccc3c(c2)CN(C2CCC(=O)NC2=O)C3=O)no1 (stereo partly shown) [Compound I-50by] | –
71.6% | 28.4% | 1080 nM | – | – | O=C1CCC(N2Cc3cc(OC[C@H]4CCCCN4Cc4c(F)cccc4F)ccc3C2=O)C(=O)N1 (stereo partly shown) [Compound I-147] | –
58.3% | 41.7% | 10100 nM | – | – | CC1(c2ccc(C(=O)N3CCCC[C@H]3COc3ccc4c(c3)CN(C3CCC(=O)NC3=O)C4=O)cc2)COC1 (stereo partly shown) [Compound I-72gc] | –
85.2% | 14.8% | 269 nM | – | – | Cn1ccc2c(CN3CCCC[C@H]3COc3ccc4c(c3)CN(C3CCC(=O)NC3=O)C4=O)cccc21 (stereo partly shown) [Compound I-50t] | –
80.2% | 19.8% | 133 nM | – | – | O=C1CCC(N2Cc3cc(OC[C@H]4CCCCN4Cc4cnn(-c5cnccn5)c4)ccc3C2=O)C(=O)N1 (stereo partly shown) [Compound I-50ct] | –
68.7% | 31.3% | 2760 nM | – | – | CN1CCOc2cc(C(=O)N3CCCC[C@H]3COc3ccc4c(c3)CN(C3CCC(=O)NC3=O)C4=O)cnc21 (stereo partly shown) [Compound I-72ij] | –
57.9% | 42.1% | 7390 nM | – | – | Cc1nn(-c2ccccc2)c(C)c1C(=O)N1CCCC[C@H]1COc1ccc2c(c1)CN(C1CCC(=O)NC1=O)C2=O (stereo partly shown) [Compound I-72gs] | –
